A word on the IC50: it is the concentration at which inhibition is half-maximal.

T1 sequence (Q9NYV4 whole entry): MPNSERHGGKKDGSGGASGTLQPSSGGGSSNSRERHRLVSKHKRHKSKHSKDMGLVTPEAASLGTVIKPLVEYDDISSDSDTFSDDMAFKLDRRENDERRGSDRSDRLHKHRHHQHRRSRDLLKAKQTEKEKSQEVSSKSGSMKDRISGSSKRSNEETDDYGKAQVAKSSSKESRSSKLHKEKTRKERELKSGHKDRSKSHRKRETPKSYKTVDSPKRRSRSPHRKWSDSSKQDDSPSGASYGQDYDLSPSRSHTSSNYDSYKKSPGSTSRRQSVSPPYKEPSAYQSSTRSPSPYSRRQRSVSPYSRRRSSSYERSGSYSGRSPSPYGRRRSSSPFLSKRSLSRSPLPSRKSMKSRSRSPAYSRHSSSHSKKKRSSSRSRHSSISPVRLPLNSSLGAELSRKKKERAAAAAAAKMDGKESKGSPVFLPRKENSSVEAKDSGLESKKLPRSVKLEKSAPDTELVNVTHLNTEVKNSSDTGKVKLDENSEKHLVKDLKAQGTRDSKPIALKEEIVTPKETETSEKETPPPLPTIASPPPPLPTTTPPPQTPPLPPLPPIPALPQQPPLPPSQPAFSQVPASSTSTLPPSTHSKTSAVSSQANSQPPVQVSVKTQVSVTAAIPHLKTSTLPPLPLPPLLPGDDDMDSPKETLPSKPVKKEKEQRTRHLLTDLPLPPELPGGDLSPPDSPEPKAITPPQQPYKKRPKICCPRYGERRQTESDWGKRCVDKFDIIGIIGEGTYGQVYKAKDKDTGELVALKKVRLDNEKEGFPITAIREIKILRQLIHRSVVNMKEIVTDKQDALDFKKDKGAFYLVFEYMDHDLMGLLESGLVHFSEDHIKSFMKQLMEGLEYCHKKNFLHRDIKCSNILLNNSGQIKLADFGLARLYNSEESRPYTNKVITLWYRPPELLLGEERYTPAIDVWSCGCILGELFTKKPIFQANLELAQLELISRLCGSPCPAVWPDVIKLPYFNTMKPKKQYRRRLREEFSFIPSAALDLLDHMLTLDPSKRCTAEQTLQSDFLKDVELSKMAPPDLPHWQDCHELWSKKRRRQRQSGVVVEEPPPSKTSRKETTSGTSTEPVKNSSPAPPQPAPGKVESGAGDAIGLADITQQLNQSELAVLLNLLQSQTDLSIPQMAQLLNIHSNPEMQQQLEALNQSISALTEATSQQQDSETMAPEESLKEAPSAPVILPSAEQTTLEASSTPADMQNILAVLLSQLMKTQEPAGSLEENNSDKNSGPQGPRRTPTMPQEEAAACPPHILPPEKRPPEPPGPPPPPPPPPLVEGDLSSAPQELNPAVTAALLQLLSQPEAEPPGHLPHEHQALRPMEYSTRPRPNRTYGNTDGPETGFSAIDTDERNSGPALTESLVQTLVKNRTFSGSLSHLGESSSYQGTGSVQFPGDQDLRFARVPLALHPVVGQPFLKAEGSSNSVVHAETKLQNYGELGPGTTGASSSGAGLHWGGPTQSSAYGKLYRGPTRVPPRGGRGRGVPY
T1 sequence (O75909 whole entry partner): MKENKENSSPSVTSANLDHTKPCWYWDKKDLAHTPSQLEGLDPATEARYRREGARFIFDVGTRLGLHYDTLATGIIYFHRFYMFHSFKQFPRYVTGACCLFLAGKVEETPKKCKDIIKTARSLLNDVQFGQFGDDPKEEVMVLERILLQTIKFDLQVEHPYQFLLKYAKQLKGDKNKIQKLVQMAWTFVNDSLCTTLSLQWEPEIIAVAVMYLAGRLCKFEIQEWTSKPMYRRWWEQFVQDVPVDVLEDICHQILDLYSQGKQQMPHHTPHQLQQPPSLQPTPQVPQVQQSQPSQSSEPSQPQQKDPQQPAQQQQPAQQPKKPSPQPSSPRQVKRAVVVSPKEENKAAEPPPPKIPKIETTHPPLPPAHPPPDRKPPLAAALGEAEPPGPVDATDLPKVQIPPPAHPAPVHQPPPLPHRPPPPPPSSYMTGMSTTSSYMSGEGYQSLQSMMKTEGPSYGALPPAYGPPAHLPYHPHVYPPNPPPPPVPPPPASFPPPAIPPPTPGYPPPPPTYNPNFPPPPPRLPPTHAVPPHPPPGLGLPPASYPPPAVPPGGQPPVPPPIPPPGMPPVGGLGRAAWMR

One test has as its target T1, CDK12 complexed with Cyclin K (Homo sapiens, UniProt Q9NYV4).
T1 construct: GST (N)
The test is described as follows: CDK Enzymatic Assays (HTRF, LANCE Ultra kinase assay), Example A1. The note with it: enzyme pre-incubated with compounds for 60 minutes prior to addition of ATP (1 mM final) and Ulight-peptide; reaction 60-90 minutes at room temperature. It counts as biochemical. The essentials:
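N-terminal GST-tagged human CDK12 co-expressed with full-length Cyclin K (baculovirus), pre-incubated with compound 60 min, then 1 mM ATP and 50 nM ULight-4E-BP1 peptide added in HEPES pH 7.5 buffer; 60-90 min at room temperature. EDTA/Eu-antibody stop, HTRF 665/620 ratio normalized to controls; IC50 from 3- or 4-parameter fit.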
As for `C=C(Cl)C(=O)Nc1ccc2c(c1)nc([C@H]1CCC[C@@H](Nc3ncc(C#N)c(OC)n3)C1)n2C` [Example 80, 2-Chloro-N-(2-((1S,3R)-3-((5-cyano-4-methoxypyrimidin-2-yl)amino)cyclohexyl)-1-methyl-1H-benzo[d]imidazol-5-yl)acrylamide], the IC50 was under 50 nM.
The same measure, in the same setting: the same measure for `C=CC(=O)Nc1ccc2c(c1)C(=O)N([C@H]1CCC[C@@H](Nc3ncc(Cl)c(OC)n3)C1)C2` [Example 81, N-(2-((1S,3R)-3-((5-Chloro-4-methoxypyrimidin-2-yl)amino)cyclohexyl)-3-oxoisoindolin-5-yl)acrylamide]: under 50 nM.
Regarding `C=CC(=O)Nc1ccc2c(c1)C(=O)N([C@H]1CCC[C@@H](Nc3ncc(Cl)cn3)C1)C2` [Example 82, N-(2-((1S,3R)-3-((5-Chloropyrimidin-2-yl)amino)cyclohexyl)-3-oxoisoindolin-5-yl)acrylamide], the IC50 was under 50 nM.
As to `C=CC(=O)Nc1ccc2c(c1)C(=O)N([C@H]1CCC[C@@H](Nc3ncc(C#N)c(OC)n3)C1)C2` [Example 83, N-(2-((1S,3R)-3-((5-Cyano-4-methoxypyrimidin-2-yl)amino)cyclohexyl)-3-oxoisoindolin-5-yl)acrylamide], the IC50 was under 50 nM.
As for `C=CC(=O)Nc1ccc2c(c1)nc(C(F)F)n2[C@H]1CCC[C@@H](Nc2ncc(C#N)cn2)C1` [Example 84, N-(1-((1S,3R)-3-((5-Cyanopyrimidin-2-yl)amino)cyclohexyl)-2-(difluoromethyl)-1H-benzo[d]imidazol-5-yl)acrylamide], the IC50 was 50 to 500 nM.
Consider `C=CC(=O)Nc1ccc2c(c1)C(=O)N([C@H]1CCC[C@@H](Nc3ncc(C(F)(F)F)cn3)C1)C2` [Example 85, N-(3-Oxo-2-((1S,3R)-3-((5-(trifluoromethyl)pyrimidin-2-yl)amino)cyclohexyl)isoindolin-5-yl)acrylamide], for which the IC50 was under 50 nM.
With `C=CC(=O)Nc1ccc2c(c1)nc(N1C[C@H](O)C[C@@H](Nc3ncc(C(F)(F)F)cn3)C1)n2C` [Example 88, N-(2-((3R,5R)-3-Hydroxy-5-((5-(trifluoromethyl)pyrimidin-2-yl)amino)piperidin-1-yl)-1-methyl-1H-benzo[d]imidazol-5-yl)acrylamide], the IC50 is under 50 nM.
On the same count and under the same terms, with `C=CC(=O)Nc1ccc2c(c1)nc(N1C[C@H](F)C[C@@H](Nc3ncc(C#N)cn3)C1)n2C` [Example 89, N-(2-((3R,5R)-3-((5-Cyanopyrimidin-2-yl)amino)-5-fluoropiperidin-1-yl)-1-methyl-1H-benzo[d]imidazol-5-yl)acrylamide] the figure was under 50 nM.
Regarding `C=CC(=O)Nc1ccc2c(c1)nc(N1CC[C@@H](F)[C@@H](Nc3ncc(C(F)(F)F)cn3)C1)n2C` [Example 90, N-(2-((3S,4R)-4-Fluoro-3-((5-(trifluoromethyl)pyrimidin-2-yl)amino)piperidin-1-yl)-1-methyl-1H-benzo[d]imidazol-5-yl)acrylamide], the half-inhibitory concentration (IC50) was under 50 nM.
The same measure, in the same setting: with `C=CC(=O)Nc1ccc2c(c1)nc(N1CC[C@H](F)[C@@H](Nc3ncc(C(F)(F)F)cn3)C1)n2C` [Example 91, N-(2-((3S,4S)-4-Fluoro-3-((5-(trifluoromethyl)pyrimidin-2-yl)amino)piperidin-1-yl)-1-methyl-1H-benzo[d]imidazol-5-yl)acrylamide] the figure was under 50 nM; with `C=CC(=O)Nc1ccc2c(c1)nc(N1CCC(F)(F)[C@@H](Nc3ncc(C(F)(F)F)cn3)C1)n2C` [Example 92, (S)—N-(2-(4,4-Difluoro-3-((5-(trifluoromethyl)pyrimidin-2-yl)amino)piperidin-1-yl)-1-methyl-1H-benzo[d]imidazol-5-yl)acrylamide], under 50 nM; with `C=CC(=O)Nc1ccc2c(c1)nc(N1C[C@H](F)C[C@@H](Nc3ncc(C(F)(F)F)cn3)C1)n2C` [Example 93, N-(2-((3R,5R)-3-Fluoro-5-((5-(trifluoromethyl)pyrimidin-2-yl)amino)piperidin-1-yl)-1-methyl-1H-benzo[d]imidazol-5-yl)acrylamide], under 50 nM.
On the same count and under the same terms, the same measure for `C=CC(=O)Nc1cc2nc(N3C[C@H](F)C[C@@H](Nc4ncc(C(F)(F)F)cn4)C3)n(C)c2cc1C1CC1` [Example 95, N-(6-Cyclopropyl-2-((3R,5R)-3-fluoro-5-((5-(trifluoromethyl)pyrimidin-2-yl)amino)piperidin-1-yl)-1-methyl-1H-benzo[d]imidazol-5-yl)acrylamide]: under 50 nM; for `C=CC(=O)Nc1cc2nc(N3CCC(F)(F)[C@@H](Nc4ncc(C(F)(F)F)cn4)C3)n(C)c2cc1C` [Example 97, (S)—N-(2-(4,4-Difluoro-3-((5-(trifluoromethyl)pyrimidin-2-yl)amino)piperidin-1-yl)-1,6-dimethyl-1H-benzo[d]imidazol-5-yl)acrylamide]: under 50 nM.
Still for that read-out and setting: with `C=CC(=O)Nc1cc2nc(N3CC[C@@H](F)[C@@H](Nc4ncc(C(F)(F)F)cn4)C3)n(C)c2cc1C` [Example 98, N-(2-((3S,4R)-4-Fluoro-3-((5-(trifluoromethyl)pyrimidin-2-yl)amino)piperidin-1-yl)-1,6-dimethyl-1H-benzo[d]imidazol-5-yl)acrylamide] the figure was under 50 nM.
Regarding `C=CC(=O)Nc1cc2nc(N3CC[C@H](F)[C@@H](Nc4ncc(C(F)(F)F)cn4)C3)n(C)c2cc1C` [Example 99, N-(2-((3S,4S)-4-Fluoro-3-((5-(trifluoromethyl)pyrimidin-2-yl)amino)piperidin-1-yl)-1,6-dimethyl-1H-benzo[d]imidazol-5-yl)acrylamide], the IC50 was under 50 nM.
Consider `C=CC(=O)Nc1cc2nc(N3C[C@H](F)C[C@@H](Nc4ncc(C(F)(F)F)cn4)C3)n(C)c2cc1C(C)C` [Example 101, N-(2-((3R,5R)-3-Fluoro-5-((5-(trifluoromethyl)pyrimidin-2-yl)amino)piperidin-1-yl)-6-isopropyl-1-methyl-1H-benzo[d]imidazol-5-yl)acrylamide], for which the IC50 was under 50 nM.
Still for that read-out and setting: with `C=CC(=O)Nc1c(Br)cc2c(nc(N3CCC[C@@H](Nc4ncc(C(F)(F)F)cn4)C3)n2C)c1C` [Example 103, (R)—N-(6-Bromo-1,4-dimethyl-2-(3-((5-(trifluoromethyl)pyrimidin-2-yl)amino)piperidin-1-yl)-1H-benzo[d]imidazol-5-yl)acrylamide] the figure was under 50 nM; with `C=CC(=O)N1C2CCC1CN(c1nccn3c(N4CCC[C@@H](Nc5ncc(C(F)(F)F)cn5)C4)ncc13)C2` [Example 109, 1-(3-(3-((R)-3-((5-(Trifluoromethyl)pyrimidin-2-yl)amino)piperidin-1-yl)imidazo[1,5-a]pyrazin-8-yl)-3,8-diazabicyclo[3.2.1]octan-8-yl)prop-2-en-1-one], under 50 nM.

The next test addresses T1, CDK12 complexed with Cyclin K. Kind of test: Alternative CDK Enzymatic Assays (HTRF, pre-incubation with compounds and 1 mM ATP), Example A2. The note with it: enzyme pre-incubated with compounds and 1 mM ATP for 60 minutes; reaction 120 minutes at 25° C. It counts as biochemical. An excerpt: Example A2. Alternative CDK Enzymatic Assays
The following activity of the CDK enzymes in complex with their respective cyclins we assayed: CDK1 complexed with Cyclin B1; CDK2 complexed with Cyclin E1; CDK4 complexed with Cyclin D1; CDK6 complexed with Cyclin D1; CDK6 complexed with Cyclin D3; CDK9 complexed with Cyclin T1; CDK7 complexed with Cyclin H/MAT1; CDK2 complexed with Cyclin A2; CDK5 complexed with p35; CDK12 complexed with Cyclin K; CDK13 complexed with Cyclin K. These in vitro enzyme activity are assayed using homogeneous time-resolved energy transfer (HTRF), which measures phosphorylation of a peptide substrate. The LANCER Ultra kinase assay (PerkinElmer) uses a ULight™-labeled EIF4E-binding protein 1 (THR37/46) peptide (DYSTTPGGTLFSTTPGTRI (SEQ ID NO: 1)) substrate and a Europium-labeled anti-phospho-4E-BP1 antibody (CDK2, CDK1, CDK4, CDK6, CDK9, CDK12, CDK13) or ULight™-labeled Myelin Basic Protein peptide (VTPRTPPP (SEQ ID NO: 2)) substrate and a Europium-labeled anti-phospho-MBP antibody (CDK7). Each CDK enzyme activity assays utilized human CDK co-expressed as N-terminal GST-tagged protein with its full length cyclin partner using a baculovirus expression system.
Enzyme was pre-incubated with compounds and 1 mM ATP for 60 minutes (CDK 1, 2, 4, 6, 9, 7, 12, 13) prior to the addition of ATP and Ulight-peptide (1 mM and 50 nM final, respectively), in assay buffer containing 50 mM HEPES pH 7.5, 1 mM EGTA, 10 mM MgCl2, 2 mM DTT, 0.05 mg/mL BSA, and 0.01% Tween 20. The reaction was then incubated for 120 minutes at 25° C. incubator. The reactions were stopped by the addition of EDTA and Europium labeled antibody, for a final concentration of 15 mM and 0.5-1.5 nM, respectively. HTRF signals were read after 15-120 minutes. A ratio of fluorescence transferred to the labeled substrate (665 nm) relative to fluorescence of the Europium donor (620 nm) represents the extent of phosphorylation. Ratios for treated wells were normalized to DMSO only (100% activity) and no enzyme (0% activity) controls. Normalized data was analyzed using a three or four parameter dose response curve to determine IC50 for each compound and are shown in Table B. Control reference inhibitors were included on each plate.
(In general: TR-FRET usually uses a lanthanide donor and a delayed reading to cut background.)
Consider `C=CC(=O)N[C@@H]1CCN(c2nccn3c(N4C[C@H](F)C[C@@H](Nc5ncc(C(F)(F)F)cn5)C4)ncc23)C1` [Example 86, N—((R)-1-(3-((3R,5R)-3-Fluoro-5-((5-(trifluoromethyl)pyrimidin-2-yl)amino)piperidin-1-yl)imidazo[1,5-a]pyrazin-8-yl)pyrrolidin-3-yl)acrylamide], for which the IC50 is 50 to 500 nM.
Turning to `C=CC(=O)N1CCCCC1c1ccc2c(c1)nc(N1C[C@H](O)C[C@@H](Nc3ncc(C(F)(F)F)cn3)C1)n2C` (stereo partly drawn) [Example 87, 1-(2-(2-((3R,5R)-3-Hydroxy-5-((5-(trifluoromethyl)pyrimidin-2-yl)amino)piperidin-1-yl)-1-methyl-1H-benzo[d]imidazol-5-yl)piperidin-1-yl)prop-2-en-1-one], the IC50 is 50 to 500 nM.
On to `C=CC(=O)Nc1cc2nc(N3C[C@H](F)C[C@@H](Nc4ncc(C#N)cn4)C3)n(C)c2cc1C` [Example 96, N-(2-((3R,5R)-3-((5-cyanopyrimidin-2-yl)amino)-5-fluoropiperidin-1-yl)-1,6-dimethyl-1H-benzo[d]imidazol-5-yl)acrylamide], for which the concentration for half-maximal inhibition (IC50) is 50 to 500 nM.
Still for that read-out and setting: the same measure for `C=CC(=O)Nc1cc2nc(N3C[C@H](F)C[C@@H](Nc4ncc(C(F)(F)F)cn4)C3)n(C)c2cc1C` [Example 100, N-(2-((3R,5R)-3-fluoro-5-((5-(trifluoromethyl)pyrimidin-2-yl)amino)piperidin-1-yl)-1,6-dimethyl-1H-benzo[d]imidazol-5-yl)acrylamide]: under 50 nM.

These data come from patent publication US12643881B2, “Bicyclic amine CDK12 inhibitors” (Incyte Corporation, priority 2021, dated 2026).
